Results as given in patent publication US20240228491A1, “METHIONINE ADENOSYLTRANSFERASE INHIBITOR, PREPARATION METHOD THEREFOR AND APPLICATION THEREOF” (SCINNOHUB PHARMACEUTICAL CO., LTD., priority 2021, published 2024).
Read-outs that look alike come from different tables or passages of the source.

Key:
[1] = In vivo pharmacokinetic study in ICR mice; conditions: plasma; for AUC(0-t): read-out: Area under curve AUC(0-t); for Cmax: read-out: Maximal concentration Cmax
Procedure: Species: ICR mice, SPF grade. Source: Shanghai Xipuer-Bikai Laboratory Animal Co., Ltd. Number: 3 mice per dosage form.
(§1) 2.1 An appropriate amount of the test sample was accurately weighed, into which 5% DMSO, 10% polyethylene glycol-15 hydroxystearate, 85% normal saline (all in volume percent) were added sequentially, and were fully mixed via vortex or ultrasound, to obtain the dosing solution with a test sample concentration of 0.4 mg/mL for intravenous administration.
as §1, with “2.2” for “2.1”, “1” for “0.4”, “oral gavage” for “intravenous”
Weighing was performed before administration, and the administration amount was calculated according to the body weight. The drug was administered orally by gavage or intravenously.
Before and 0.083 h, 0.25 h, 0.5 h, 1 h, 2 h, 4 h, 6 h, 8 h, 24 h after administration.
Blood was collected via submandibular vein or other suitable means, and approximately 0.03 mL per sample was collected via anticoagulation with heparin sodium. Blood samples were placed on ice after collection and centrifuged to separate plasma within 1 h (centrifugation conditions: centrifugal force of 6800 g, 6 min, 2-8° C.). The collected plasma samples were stored in a −80° C. refrigerator before analysis, and the remaining plasma samples continued to be stored in a −80° C. refrigerator for temporary storage after analysis.
When plot the plasma concentration-time curve according to the detected plasma concentration of the test substance, BLQ (Beneath Limit of Quantification) was recorded as 0. When calculating pharmacokinetic parameters, the concentration before administration was calculated as 0; BLQ (including “No peak”) before Cmax was calculated as 0; BLQ (including “No peak”) after Cmax was not involved in the calculation. Pharmacokinetic parameters, such as AUC(0-t), T1/2, Cmax, etc., were calculated by WinNonlin using the plasma concentration data at different time points.

[2] = target: MAT2a (Homo sapiens (Human), UniProt P31153); experiment: MAT2a enzymatic activity test (colorimetric assay); type: biochemical; conditions: OD620, 150 min reaction, read-out: IC50 against MAT2a
Chain of MAT2a (P31153 whole entry): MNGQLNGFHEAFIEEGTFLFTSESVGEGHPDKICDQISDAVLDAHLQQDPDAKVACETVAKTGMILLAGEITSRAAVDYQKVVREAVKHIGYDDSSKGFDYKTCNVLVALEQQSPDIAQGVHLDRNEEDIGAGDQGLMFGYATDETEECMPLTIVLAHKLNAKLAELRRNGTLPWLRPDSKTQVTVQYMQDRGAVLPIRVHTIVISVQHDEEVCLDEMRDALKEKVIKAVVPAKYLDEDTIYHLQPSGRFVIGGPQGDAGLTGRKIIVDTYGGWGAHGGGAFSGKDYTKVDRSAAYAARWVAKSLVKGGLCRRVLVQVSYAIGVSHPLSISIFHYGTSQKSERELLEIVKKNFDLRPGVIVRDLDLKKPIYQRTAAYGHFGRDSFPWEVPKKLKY
Method in brief: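 MAT2a (20 μg/mL working solution) was preincubated 15 min with compound (10-point, 3-fold series from 1 or 10 μM) in Tris/KCl/MgCl2 buffer, pH 8.0. Reaction with 400 μM ATP and 600 μM L-methionine (substrate-mix concentrations) ran 150 min. Phosphate was detected by BIOMOL Green at OD620, with IC50 from log(inhibitor)-response fitting.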

[3] = test system: DOHH-2 cells; experiment: Inhibitory activity test of DOHH-2 cells; type: cell-based; conditions: Homo sapiens, 120 h incubation, CellTiter-Glo, read-out: DOHH-2 cell inhibitory activity IC50
Procedure: On day 1, cell seeding: cells were resuspended to the desired density with DMEM complete medium (Gibico, Cat. No. 10569010) supplemented with 10% FBS (Gibco, 10099141C), mixed evenly, and added into the 384-well plate at 30 μL/well with a cell density of 800/well. The compounds to be tested were added as follows: 30 nL of DMSO solution containing the compound (the concentration of the compound in which was formulated as: 3-fold gradient dilution from 10 mM, 10 concentration points in total) was added, incubated for 120 h at 37° C., 5% CO2. On day 6, the cells treated with compounds were removed and equilibrated to room temperature, 30 μL of CellTiter-Glo (Promega company, Cat. No. G7573) reagent was added per well, and the cells were fully lysed by shaking at room temperature, and then incubated in dark at 37° C., 5% CO2 for 30 min, to detect the fluorescence intensity.
% Inhibition=100−(signal of the well with the compound to be tested−signal of the well with only medium and free of cells)/(signal of the well with cells but without the addition of the compound−signal of the well with only medium and free of cells)×100.
(§2) The log value of concentration was used as the X-axis and % Inhibition was used as the Y-axis, so as to fit the dose-effect curve and calculate the IC50 value using nonlinear regression (dose response−variable slope) in the analysis software GraphPad Prism 8.

[4] = test system: KP-4 cells; experiment: Inhibitory activity test of KP-4 cells; type: cell-based; conditions: Homo sapiens, 144 h incubation, read-out: KP-4 cell inhibitory activity IC50
Procedure: On day 1, cell seeding: after digestion of the cells with trypsin, the cells were resuspended to 1*10^4/mL with RPMI1640 complete medium (HyClone Company, Cat. No. SH30809.01) supplemented with 10% FBS (Gibco, 10099141C), mixed evenly, and added into the 96-well plate at 100 μL/well. The plate was put back to the incubator for the adherent growth of cells. On day 2, the addition of the compounds to be tested: 100 μL of the complete medium containing the compounds (the concentration of the compound in the medium was formulated as follows: 3-fold gradient dilution from 60 μM, 10 concentration gradients in total) was added, incubated for 144 hours at 37° C., 5% CO2. On day 8, the cell culture plates were taken out from incubator and equilibrated to room temperature, excess medium was pipetted from the wells so that 50 μL of supernatant was retained, and 50 μL of CellCounting-Lite 2.0 (Nanjing Vazyme Biotech Co., Ltd., Cat. No. DD1101) reagent was added per well, and the cells were fully lysed by shaking at room temperature for 10 min, and incubated for 5 min to detect the fluorescence intensity.
% Inhibition=100−(signal of the well with the compound to be tested−signal of the well with only medium and free of cells)/(signal of the well with cells but without addition of the compound−signal of the well with only medium and free of cells)×100.
as §2

- Apparent clearance rate Cl ([1]; IV 2 mg/kg): 1.03 mL/min/kg
- AUC(0-t) ([1]; mouse, IV 2 mg/kg): 31.7 µg·h/mL
- half-life ([1]; mouse, IV 2 mg/kg, read-out: Half life T1/2 (converted)): 5.53 h
- Cmax ([1]; mouse, IV 2 mg/kg): 3540 ng/mL
- AUC(0-t) ([1]; mouse, PO 10 mg/kg): 211 µg·h/mL
- half-life ([1]; mouse, PO 10 mg/kg, read-out: Half life t1/2 (converted)): 9.32 h
- Cmax ([1]; mouse, PO 10 mg/kg): 18100 ng/mL
- bioavailability ([1]; mouse, PO 10 mg/kg vs IV 2 mg/kg, read-out: Bioavailability F %): 133%
- IC50 [2]: 13.6 nM
- IC50 [4]: 360 nM
Structure (SMILES): Nc1c(-c2ccc3nccnc3c2)c(=O)n(-c2ccc(Cl)cc2)c2nc(C(F)(F)F)ccc12 [Example 36]
- IC50 [3]: 7 nM
